# Entries after “also recorded” stand apart in the source; their conditions may differ.
# How the values were obtained:
# [1] = tested on: 3-NT levels in PFC of NVHL rats; assay: 3-Nitrotyrosine (3-NT) labeling in adult PFC of NVHL rats; type: in vivo, Sprague-Dawley rats; settings: P61 NVHL rats, juvenile treatment
# Excerpt: To assess oxidative stress, DNA oxidation with 8-oxo-7,8-dihydro-20-deoxyguanine (8-oxo-dG) labeling was quantified. […] 3-NT indicates nitration of proteins due to oxidative and nitrosative stress (Radi, 2004), and its increase in NVHL rats was prevented by NAC treatment during development (as shown in FIGS. 9A and 9B). […] A possible explanation for the levels of oxidative stress detected in the adult PFC following an NVHL is the reduced glutamatergic input from ventral hippocampus during development, as blocking NMDA receptors induces oxidative stress in PVI (Behrens et al., 2007).
# (§1) Antioxidant pretreatment regimen: NAC (BioAdvantexPharma, Mississauga, Ontario, Canada) was administered in the drinking water at 900 mg/l. NAC treatment started at P5 or at P35, and previous work in mice has shown that NAC consumed by the dam is transmitted to the pups through her milk (das Neves Duarte et al., 2012). NAC treatment ended at P50. Fresh solutions were prepared every 2-3 days. Ebselen (Sound Pharmaceuticals Inc., Seattle, WA) was administered i.p. 5 days a week starting at P35 until the day of PPI testing (P60). Stock ebselen solution (20 mg/ml DMSO, frozen aliquots) was diluted 1:5 in sterile water and administered at a dose of 10 mg/kg. Control animals received an equivalent concentration of DMSO diluted 1:5 in water. […]
# [2] = tested on: PFC pyramidal neurons of NVHL rats; assay: In vivo intracellular recordings: PFC pyramidal cell firing after VTA stimulation in NVHL rats; parameters: species or system Sprague-Dawley rats; settings: anesthetized adult NVHL rats, juvenile treatment
# Experimental: The abnormal dopamine modulation of PFC function in NVHL rats is also observed in vivo. In vivo intracellular recordings were performed in 38 pyramidal neurons from adult rats (n=9 SHAM (placebo), n=5 NVHL, and n=7 NAC-treated NVHL). […] Up states occurred at a frequency of 0.6±0.1 Hz with a duration of 523.6±24.7 ms. The majority of cells (n=21) fired spontaneously at a rate of 2.1±0.7 Hz.
# as §1
# Microelectrodes were advanced through the medial PFC until a neuron was impaled. […] Firing was measured in the 500 ms epoch following the last VTA pulse in all sweeps, and compared among experimental groups. […]
compound,measurement,setting,value
"CC(=O)N[C@@H](CS)C(=O)O [NAC, N-acetyl cysteine]",effect on increase in 3-NT labeling in PFC,[1],prevented
same,effect on abnormal increase in pyramidal cell firing after VTA burst stimulation,[2],prevented; also recorded: sparse

# Source: patent US20240050409A1, “Methods and Compositions for Treating Psychotic Disorders” (SOUND PHARMACEUTICALS INCORPORATED, priority 2014, published 2024)
